Laboratory results taken from patent US6605639B1, “Ligands of nuclear receptor” (Nuclear Receptor Research, Ltd., priority 1998, dated 2003).
In brackets after ≈: the same amount, converted by molar mass. Several values for one entry are separate records, joined by “and”; a condition that tells them apart may be missing. Equal entries are not always repeated.

Columns and labels:
DOCA hypertensive rats = test: Aneurysm formation in the mesenteric artery of DOCA hypertensive rats; assay type: in vivo, rat; design: Lesion index, individual rats / Lesion index, Avg: scale not given here; details: for Appearance frequency (node count/arteriole count×100), individual rats / Lesion index, individual rats / Appearance frequency, Avg / Lesion index, Avg / Node count, Avg / Node count, individual rats: 7 weeks; for Appearance frequency, Avg / Lesion index, Avg / Node count, Avg: 6 rats; for Node count, individual rats: counted thrice, average
From the text: The compounds of the present invention show an effect of inhibiting periarteritis nodosa in a malignant hypertension model rat in which periarteritis nodosa arises in the mesenteric artery and progresses into aneurysm. Among aneurysms, those formed in the mesenteric artery can be treated quantitatively. Thus, the mesenteric artery was taken out and fixed with formalin. Then it was fat-stained and arterioles and aneurysms were counted thrice and the average aneurysm count per arteriole was calculated. To rats with renal hypofunction due to the excision of one kidney, […] saline, having a somewhat higher osmotic pressure than plasma, was given as drinking water and 10 mg/kg of deoxycorticosterone acetate (DOCA) (a mineral corticoid) was subcutaneously administered at intervals of 1 week. Twenty-four male Wistar rats were divided into 4 groups at random. After taking out the left kidney, each animal was allowed to stand and the operative wound was fused. […] The experiment was carried out for 7 weeks. Since the initiation of the experiment, the feed intake, water intake, urine, body weight and blood pressure of each group were measured once every three days.
The average blood pressure exceeded 180 mmHg in the 3rd week and attained 200 mmHg in the 4th week. […] In the 7th week, each animal was dissected and the mesenteric artery was taken out. After treating with formalin, the artery was fat-stained and aneurysms were counted. […] In the high-dose Compound-6 group, the average aneurysm count per arteriole was lowered to 0.27±0.05.
Arterioles and nodes in the mesenteric artery were each counted thrice and the average was calculated.
a) Appearance frequency=node count/arteriole count×100 (%).

Solubility = assay type: physicochemical
Experimental: Subsequently, Compound-6 was added to the serum to examine the formation of a Schiff base in vitro. […] When Compound-6 dissolved in dimethyl sulfoxide at a high concentration was added in portions to bovine serum, Compound-6 was dissolved in the serum at a ratio of […] (i.e., 1000-fold) and the serum turned yellow depending on the concentration of Compound-6. When an organic solvent (ethanol, acetonitrile, etc.) was added to this yellow serum, the coloring matter was not dissolved in the organic solvent but precipitated as yellow serum protein. The organic solvent layer contained no Compound-6. However, Compound-6 was quantitatively recovered as an acetonitrile solution by adding acetonitrile containing 1% of acetic acid to this yellow precipitate and allowing the mixture to stand for 1 week. In a reaction between a protein and a drug molecule, there has been taken no consideration into the conversion into a novel compound via the formation of a covalent bond between the drug and serum protein in vivo. However, it is obvious that aldehyde group in the benzene ring of the compounds of the present invention and amino group of serum protein form a Schiff base on the basis of the following facts. (1) The compounds of the present invention cannot be detected by any usual methods from the serum of animals to which the compounds have been administered. (2) The compounds of the present invention are released by adding an acidified organic solvent in a large amount to the serum and allowing to stand at room temperature for about 1 week. (3) When added to serum in vitro, the compounds of the present invention are dissolved at a ratio as high as 1000-fold and can be recovered by the same method as used in recovering the compounds of the present invention from the serum of animals to which the compounds have been administered. (4) The serum of animals, to which the compounds have been administered, or serum containing the compounds of the present invention turns into yellow.

[1] = Oral administration of radioisotope-labeled compound: recovery and distribution of radioactivity; assay type: in vivo, rat; details: once
From the text: The Schiff base formed by the reaction of the compound of the present invention with serum protein is an inactivated compound with a masked biological activity. […] It is still interesting that the radioactive compound incorporated into the adipocyte tissue was free Compound-6 dissolved in oil droplets in cells. It is unknown why the radioactivity is distributed selectively in adipocyte tissue and accumulated with the passage of time. […] Namely, the compound of the present invention is converted into a highly safe Schiff base with the masked biological activity at the step of being absorbed via digestive tract. This Schiff base is adsorbed on the target cell surface layer and incorporated into the cells via endocytosis. Then it is hydrolyzed to regenerate the free Compound-6. The free Compound-6 is dissolved in oil droplets in depot fat. In adipocytes, it is gradually dissolved in cytoplasm and exerts its effect. When depot fat in white adipocyte tissue is transported into other tissues as an energy source, the free Compound-6 is transported together with the fat. That is to say, it also serves as a depot simultaneously. The compound according to the present invention is hardly incorporated into other tissues. […] Different from retinoids, the compounds of the present invention can exert the effects without causing the side effects inherent to retinoids. The reasons are, without doubt, related to kinetics (absorption, transportation, regeneration of activated compound in target cell surface layer, etc.) of the compounds of the present invention, which differ from those of retinoids. […]

## COc1c(Cl)c(C)c(C=O)c(O)c1C/C=C(C)/C=C/[C@@]1(C)[C@H](C)CCC(=O)[C@@H]1C [Compound-6, 4-O-methylASC]
DOCA hypertensive rats; 10 mg/kg/day
  Appearance frequency (node count/arteriole count×100), individual rats: 25.89% and 20.56% and 27.27% and 274.91% and 33.35% and 15.00%
  Lesion index, individual rats: 1 (5×) and 4
  Appearance frequency, Avg: 66.16 ± 41.83%
  Lesion index, Avg: 1.50 ± 0.50
  Node count, Avg: 9.27
  Node count, individual rats: 2.33 (2×) and 3.00 and 40.33 and 5.67 and 2.00
DOCA hypertensive rats; 40 mg/kg/day
  Appearance frequency (node count/arteriole count×100), individual rats: 7.89% and 3.19% and 16.67% and 36.59% and 25.62% and 28.87%
  Lesion index, individual rats: 1
  Appearance frequency, Avg: 26.57 ± 5.24 %
  Lesion index, Avg: 1.00 ± 0.00
  Node count, Avg: 2.67
  Node count, individual rats: 1.00 and 0.33 and 2.00 and 5.00 and 3.33 and 4.33
DOCA hypertensive rats; high-dose group (40 mg/kg/day), 7th week
  average aneurysm count per arteriole: 0.27±0.05
DOCA hypertensive rats; low-dose group (10 mg/kg/day), 7th week
  aneurysms per arteriole on average: 0.66±0.41
Solubility; added in portions from dimethyl sulfoxide solution
  dissolved in bovine serum at a ratio of: 800 µg/mL
Solubility; bovine serum
  solubility in serum relative to PBS: 1000 fold
Solubility; phosphate buffer saline (PBS)
  solubility: 0.8 µg/mL (≈ 1.91 µM)
[1]
  radioactivity incorporated into white adipocyte tissue: elevated day by day
  route of excretion of radioactivity: mostly excreted via feces
  time after which radioactivity disappeared in most of the organs: 3 days
